Measured values published in ChEMBL document CHEMBL3507680, “University of Dundee, Gates Library screen for HepG2 cell viability”.

Test: Human HepG2 cell viability assay in 384 well format
Assay type: toxicity, cell-based
Parameters: dose 125 nL, time 70.5 hour; cytotoxicity at 70.5 h: concentration not given beside the values
Conditions: HepG2 cells, read-out: Inhibition

SMILES	cytotoxicity at 70.5 h [%]
Cc1nnc2n1CCN(C(C(N)=O)c1ccc(F)cc1)C2 (stereo unspecified)	-16.8
Cc1nn(Cc2ccc(F)cc2)c2[nH]nc(N)c12	-9.36
O=C(Nc1ccc(F)c(Br)c1)N1CCCC1	-1.36
Cc1ccc(-c2nnc([C@H]3CCN(C4CCC4)C3)o2)cc1	16.3
COc1ccc(-c2nnc([C@H]3CCN(C4CCC4)C3)o2)cc1	-0.264
CC(C)(C)CN1CC[C@H](c2nnc(Cc3c[nH]c4ccccc34)o2)C1	15.2
O=C1CO[C@H]2CN(C3CCOCC3)C[C@H]2N1Cc1ccc(F)cc1	16.1
Fc1cccc(-c2c[nH]c([C@@H]3COCCN3C3CCOCC3)n2)c1	-8.23
Cc1ccc2[nH]c([C@H]3CCN(CC4CCCCC4)C3)nc2c1	5.77
Cc1ccc(CNC2(Cc3cc(CC(C)C)on3)COC2)o1	9.27
CC1(C)[C@H](Cc2cc(CN3CCCCC3)on2)C[C@@H]1NC(=O)C1CC1	10.2
CC[C@H]1CN2CC[C@H]1C[C@@H]2CNCc1cccc(C#N)c1	13
Cc1ccccc1CN1CC[C@H](c2nnc(-c3cncn3C)o2)C1	1.18
c1cncc(-c2nnc([C@H]3CCN(CC4CC4)C3)o2)c1	8.27
Fc1ccc(OCc2nnc([C@H]3CCN(Cc4ccccn4)C3)o2)cc1	-7.48
CC(C)N1CC[C@H](c2nnc(Cc3c[nH]c4ccccc34)o2)C1	-4.41
F[C@@H]1CN(Cc2cccnc2)C[C@@H]1OCc1nc2ccccc2[nH]1	-3.79
CN1C(=O)CO[C@H](c2ccc(NC(=O)NC(C)(C)C)cc2)[C@H]1CO	-0.339
N#Cc1ccc(CN2C[C@@H](F)[C@@H](OCc3nc4cnccc4[nH]3)C2)cc1	-1.95
COc1ccccc1CN1C[C@@H](F)[C@@H](OCc2nc3cnccc3[nH]2)C1	-4.23
F[C@@H]1CN(CC2CC2)C[C@@H]1OCc1nc2ccccc2[nH]1	14.4
Cc1cccc2c1nc1n2[C@@H](CNC(=O)c2ccncc2)COC1	-3.38

SMILES	cytotoxicity at 70.5 h [%]
COc1ccc(CNC[C@H]2COCc3nc4cc(F)ccc4n32)cn1	-18.3
COc1ccc2nc(C[C@@H]3C[C@@H](C(C)C)[C@H](CN)C=C3C)[nH]c2n1	-4.84
CCS(=O)(=O)c1ccc2oc([C@H]3CCN(Cc4ccncc4)C3)nc2c1	6.63
COC(=O)[C@H]1CN(C(=O)NC(C)C)CCN1C(=O)c1cccs1	-5.45
O=C(NCc1cccnc1)[C@H]1CN2CCC1C[C@@H]2Cn1cc(CO)nn1 (stereo partly specified)	-6.61
Cc1cccc(-c2noc([C@@H]3Cc4nc[nH]c4CN3)n2)c1	-3
CC1=C[C@@H](CN2CCC(CO)CC2)[C@H](C(C)C)C[C@H]1Cc1nnc(C)o1	-1.39
COCCOc1ccnc(-c2noc([C@@H]3CCCN3CC(C)C)n2)c1	-5.97
c1cc(-c2noc([C@@H]3CCCN3C3CCC3)n2)cc(N2CCCC2)n1	-6.56
CC(C)CN1C[C@@H]2OCC(=O)N(c3ccccc3)[C@@H]2C1	-15.4
O=C1CO[C@H]2CN(S(=O)(=O)c3ccccc3)C[C@H]2N1CC1CCCCC1	-11.1
CC(C)NC(=O)N[C@H]1C[C@@H](c2nc(-c3ccc(F)cc3)no2)N(C)C1	-4.13
Cc1ccc(CN2CC[C@H](c3nc4cccc(C(N)=O)c4[nH]3)C2)cc1	31.1
O=C(NC[C@H]1C[C@@H]2CCN1C[C@@H]2CN1CCCC1)c1ccco1	-4.55
Clc1ccc(-c2nnc([C@H]3CCN(C4CCCCC4)C3)o2)cc1	-3.54
COCc1cc(CC2(NC3CCCCC3)COC2)no1	9.57
CC1(C)[C@H](Cc2cc(CN3CCOCC3)on2)C[C@@H]1NC(=O)C1CCC1	11.5
CN(C)[C@H]1C[C@@H](Cc2cc(CO)on2)C1(C)C	-14.4
COc1ccc(CN[C@@H]2CO[C@H](CNC(=O)N3CCOCC3)[C@H]2O)cc1	2.1
CC(C)(C)CC(=O)N[C@@H]1CO[C@H](CNC(=O)c2ccncc2)[C@H]1O	-2.51
COCc1cc(C[C@@H]2CC[C@H](O)[C@@H](CN(CC(C)C)CC(C)C)O2)no1	-0.301
O=C(NC[C@H]1OC[C@@H](NCc2cccs2)[C@@H]1O)N1CCOCC1	8.48

SMILES	cytotoxicity at 70.5 h [%]
Cc1ccc(CNC2(Cc3cc(-c4ccccc4)on3)COC2)o1	-0.988
CC(C)CN1CC[C@H](c2nnc(COc3ccc(F)cc3)o2)C1	-3.77
O=C1C[C@@H]2CCN(Cc3ccccc3)C[C@@H]2CCN1c1ccccc1	6.43
CN1CCOC[C@H]1c1nc(C(C)(C)C)c[nH]1	11.4
CN1CCOC[C@H]1c1nc(-c2cccnc2)c[nH]1	-7.84
CN(C)[C@@H]1CO[C@H](CNC(=O)Nc2ccccc2)[C@H]1O	-1.04
O[C@H]1CC[C@@H](Cc2cc(-c3ccc(F)cc3)on2)O[C@@H]1CNCC1CC1	-5.85
CCCN1C(=O)[C@@H]2[C@@H](CCN2C(=O)COC)N(Cc2cccs2)C1=O	11.5
CC(=O)NC[C@@H]1C=C(C)[C@H](CC(=O)NCCN(C)C)C[C@H]1C(C)C	23.8
O=C(NCc1ccc(Cl)cc1)[C@@H]1Cc2[nH]cnc2CN1CC1CC1	-6.64
O=C(N[C@@H]1CNCCC[C@H]1O)c1ccc(OCCN2CCCC2)cc1	-3.24
Nc1ncncc1-c1noc([C@@H]2CCCN2Cc2cccnc2)n1	-9.55
O=C1CO[C@H]2CN(S(=O)(=O)c3ccccc3)C[C@H]2N1Cc1ccccn1	-15
O=C(NC[C@H]1OC[C@@H](NC2COC2)[C@@H]1O)Nc1ccccc1	-1.19
CC(C)NC(=O)O[C@H]1COCCN(c2nc3ccccc3s2)C1	-5.43
COCCO[C@H]1COCCN(C2CCN(C)CC2)C1	12.5
Cn1nc(CNC(=O)CN2C(=O)CCC2=O)cc1C1CC1	1.45
Cn1nc(CNC(=O)C2CCN(S(C)(=O)=O)CC2)cc1C1CC1	-3.55
O=C(NCc1cc(C2CC2)n(C2CCCC2)n1)C1CC1	-9.71
CCOCC(=O)NCc1cc(C2CC2)n(C2CCCC2)n1	0.0223
COc1ccc(S(=O)(=O)C2CCN(C(=O)c3cc(C)cs3)CC2)cc1	1.95
Cn1cnnc1S(=O)(=O)C1CCN(C(=O)c2ccco2)CC1	10.3

SMILES	cytotoxicity at 70.5 h [%]
O=C(CCc1ccccc1Br)N1CC(S(=O)(=O)C2CCCCC2)C1	-5.63
O=C(c1ccco1)N1CC(S(=O)(=O)c2ccc(Cl)cc2)C1	-10.1
O=C(NC1CCN(c2nccs2)CC1)c1cccs1	10.5
Cc1cccc(CC(=O)Nc2cnn(C3CCOC3)c2)c1 (stereo unspecified)	-13.6
COC(CNC(=O)C1CCCC1)c1ccc(C)s1 (stereo unspecified)	-1.8
COC(CNC(=O)c1cc(C)on1)c1ccccc1C (stereo unspecified)	-2.28
CCC(CNC(=O)OC)(OC)c1ccccc1 (stereo unspecified)	-0.855
CN(C)Cc1ccc(C2CCCCN2C(=O)c2cccc(CO)n2)cc1 (stereo unspecified)	23.6
Clc1ccccc1C1(c2ccnc(-c3ccncc3)n2)CCNCC1	-5.92
Cc1ccc([C@@H]2CN(C(=O)c3csc(C)n3)C[C@H]2NC(=O)C2CC2)cc1	-12.3
CCC(=O)N1CCc2[nH]cnc2C12CCN(C(=O)CCS(C)(=O)=O)CC2	-1.4
CN(Cc1cccc(O)c1)CC1CCCN(CCc2ccc(Cl)cc2)C1 (stereo unspecified)	10.2
CN(C)CC(=O)N1CCCC2(CCC(=O)N(CCc3c[nH]cn3)C2)C1 (stereo unspecified)	-14.8
COCc1cc(NCc2cc(F)ccc2F)n2nccc2n1	-0.226
CN(CCc1ccccc1)C1CCCN(Cc2nccn2C)C1 (stereo unspecified)	-4.92
Cc1cc(N2CCN(Cc3nccn3C)CC2)cc(C)n1	18.4
CN(C)C(=O)CN1C[C@@H]2CC[C@H](C1)N(Cc1cccc(Cl)c1Cl)C2	7.51
Fc1ccccc1Cc1noc(CN2CCCC(CN3CCCC3)C2)n1 (stereo unspecified)	-2.47
CCCN(CCO)C(=O)C1CCC(=O)N(CCc2ccc(Cl)cc2)C1 (stereo unspecified)	-4.6
CSc1ccc(-c2nc(CN3CCC(NC(C)=O)C3)c(C)o2)cc1 (stereo unspecified)	-1.58
CC(CN1CCOCC1)NCC1CCN(c2cnn(C)c(=O)c2)CC1 (stereo unspecified)	-4.8
CC(C)CCc1noc(CN2CCCN(C(=O)c3ccco3)CC2)n1	-0.918

SMILES	cytotoxicity at 70.5 h [%]
Cn1cccc1-c1cc(C(=O)N2CC(c3cccnc3)C2)[nH]n1	-5.83
CSc1ncccc1C(=O)N1C[C@H]2CC[C@@H]1CN(c1cnccn1)C2	-10.6
O=C1CC2(CCN(CCO)CC2)CN1Cc1cc(F)cc(F)c1	-7.72
COCCN(C)C[C@@H]1CN(C(=O)c2ccoc2)C[C@@H]1CO	-7.32
COc1ccc2c(c1)CCN(CCC(=O)O)CC2	12.3
Cc1ccsc1CN(Cc1ccccn1)CC(C)C	-6.06
CCCc1cc(C(=O)N(C)Cc2cnc3ccccc3n2)n(C)n1	-4.51
CC(C)c1cc(NCC(O)c2ccc(F)cc2)n2nccc2n1 (stereo unspecified)	0.769
N#CC1CCCN(c2nc(-c3ccccc3)nc3c2CCNCC3)C1 (stereo unspecified)	6.37
Cc1nc[nH]c1-c1nc2cc(S(=O)(=O)N3CCCC3)ccc2n1C	-2.05
CN1CC(c2ccccc2)CC12CCN(C(=O)c1c(Cl)cnn1C)CC2 (stereo unspecified)	-7.56
COC(C(=O)N1CCN(c2cccc(Cl)c2)C(=O)C1)c1ccccc1 (stereo unspecified)	-7.64
Cc1ccccc1CSc1nc(N)cc(N2CC[C@@H](O)C2)n1	-6.37
Cc1nc(CN2CCCC2c2nc(C(C)C)no2)cs1 (stereo unspecified)	-2.96
Cc1nc(N2CCN(C)CC2)ncc1C(=O)N1CC(C)(C)C(C)(O)C1 (stereo unspecified)	14.1
CN(C)CCNC(=O)c1ccc(OC2CCN(S(C)(=O)=O)CC2)c(Cl)c1	-9.41
Cc1ccc(F)cc1C(=O)N1C[C@@H](CN2CCOCC2)[C@@H](CO)C1	-6.59
C[C@@H]1CN(C2(C(=O)N3CCOCC3)Cc3ccccc3C2)C[C@H](C)O1	2.82
